In the NIST ThermoML archive (doi:10.1021/je060271a):
“And” between values parts separate entries of the source, which are not always exact repeats. Equal entries are not always repeated.

Details: 283.14 K, Liquid, Vibrating tube method

CCCCCCC(=O)OCC(COC(=O)CCCCCC)(COC(=O)CCCCCC)COC(=O)CCCCCC [pentaerythritol tetraheptanoate]
Details | mass density
99.9 kPa | 986 kg/m3
100.4 kPa | 985.9 kg/m3 and 986 kg/m3
100.6 kPa | 985.8 kg/m3
100.8 kPa | 985.9 kg/m3
100.9 kPa | 985.9 kg/m3
104.1 kPa | 985.9 kg/m3
108.1 kPa | 985.9 kg/m3
116.6 kPa | 986 kg/m3
124.9 kPa | 986 kg/m3
130.8 kPa | 986 kg/m3
135.4 kPa | 985.9 kg/m3
142 kPa | 985.9 kg/m3
146.3 kPa | 986 kg/m3
150.6 kPa | 986 kg/m3
154.5 kPa | 986 kg/m3
158.5 kPa | 986 kg/m3
164.2 kPa | 986 kg/m3
168.9 kPa | 985.9 kg/m3
174.6 kPa | 986 kg/m3
181.1 kPa | 986 kg/m3
189.8 kPa | 986 kg/m3
198.1 kPa | 986 kg/m3
208.7 kPa | 986 kg/m3
218.8 kPa | 986 kg/m3
231 kPa | 985.9 kg/m3
246.9 kPa | 986 kg/m3
262.2 kPa | 986 kg/m3
279.6 kPa | 985.9 kg/m3
304.3 kPa | 985.9 kg/m3
328.1 kPa | 986 kg/m3
354.9 kPa | 986 kg/m3
383.4 kPa | 986.2 kg/m3
410.5 kPa | 986.1 kg/m3
428.6 kPa | 986.2 kg/m3
445.6 kPa | 986.1 kg/m3
459.5 kPa | 986.2 kg/m3
470.3 kPa | 986.1 kg/m3
483.1 kPa | 986.2 kg/m3
493.7 kPa | 986.2 kg/m3
504.3 kPa | 986.1 kg/m3
518.6 kPa | 986.2 kg/m3
531.3 kPa | 986.2 kg/m3
543.6 kPa | 986.2 kg/m3
560.1 kPa | 986.2 kg/m3
574.5 kPa | 986.2 kg/m3
588.8 kPa | 986.2 kg/m3
607.2 kPa | 986.2 kg/m3
623.7 kPa | 986.2 kg/m3
641.4 kPa | 986.2 kg/m3
659.1 kPa | 986.3 kg/m3
682.8 kPa | 986.3 kg/m3
703.5 kPa | 986.3 kg/m3
725 kPa | 986.2 kg/m3
748.3 kPa | 986.2 kg/m3
777.3 kPa | 986.4 kg/m3
803.3 kPa | 986.3 kg/m3
830.4 kPa | 986.3 kg/m3
857.2 kPa | 986.4 kg/m3
881.9 kPa | 986.4 kg/m3
894.4 kPa | 986.4 kg/m3
910.2 kPa | 986.5 kg/m3
922.9 kPa | 986.5 kg/m3
936.1 kPa | 986.4 kg/m3
950.3 kPa | 986.3 kg/m3
964.4 kPa | 986.4 kg/m3
981.7 kPa | 986.3 kg/m3
997.4 kPa | 986.4 kg/m3
1013.2 kPa | 986.5 kg/m3
1029.5 kPa | 986.4 kg/m3
1046.2 kPa | 986.4 kg/m3
1066 kPa | 986.6 kg/m3
1084 kPa | 986.4 kg/m3
1102.6 kPa | 986.5 kg/m3
1119.8 kPa | 986.5 kg/m3
1142.7 kPa | 986.6 kg/m3
1162 kPa | 986.6 kg/m3
1186.3 kPa | 986.5 kg/m3
1207.3 kPa | 986.5 kg/m3
1229.4 kPa | 986.6 kg/m3
1252.5 kPa | 986.5 kg/m3
1277.3 kPa | 986.7 kg/m3
1301.1 kPa | 986.6 kg/m3
1329.6 kPa | 986.7 kg/m3
1354.8 kPa | 986.6 kg/m3
1386.2 kPa | 986.6 kg/m3
1412.2 kPa | 986.7 kg/m3
1440.9 kPa | 986.6 kg/m3
1469.5 kPa | 986.6 kg/m3
1505.1 kPa | 986.6 kg/m3
1536 kPa | 986.8 kg/m3
1568.8 kPa | 986.7 kg/m3
1609.6 kPa | 986.8 kg/m3
1645.7 kPa | 986.8 kg/m3
1682.5 kPa | 986.8 kg/m3
1719 kPa | 986.8 kg/m3
1765.3 kPa | 986.9 kg/m3
1804.9 kPa | 986.9 kg/m3
1848.1 kPa | 986.9 kg/m3
1898.4 kPa | 986.8 kg/m3
1940.3 kPa | 987 kg/m3
1966.1 kPa | 986.9 kg/m3
1976.7 kPa | 987 kg/m3
1988.3 kPa | 987.1 kg/m3
2001 kPa | 987 kg/m3
2021 kPa | 987 kg/m3
2110 kPa | 987 kg/m3
2201.2 kPa | 987.1 kg/m3
2343.8 kPa | 987.2 kg/m3
2462.5 kPa | 987.4 kg/m3
2487.8 kPa | 987.3 kg/m3
2506.9 kPa | 987.3 kg/m3
2521.6 kPa | 987.2 kg/m3
2536.4 kPa | 987.3 kg/m3
2553.4 kPa | 987.3 kg/m3
2568.1 kPa | 987.2 kg/m3
2582.9 kPa | 987.4 kg/m3
2600 kPa | 987.4 kg/m3
2614.3 kPa | 987.4 kg/m3
2628.5 kPa | 987.3 kg/m3
2642.2 kPa | 987.3 kg/m3
2656.6 kPa | 987.4 kg/m3
2675.1 kPa | 987.4 kg/m3
2688.8 kPa | 987.5 kg/m3
2704.6 kPa | 987.4 kg/m3
2719.9 kPa | 987.5 kg/m3
2736 kPa | 987.6 kg/m3
2751.8 kPa | 987.5 kg/m3
2766.5 kPa | 987.5 kg/m3
2800.3 kPa | 987.5 kg/m3
2816.5 kPa | 987.5 kg/m3
2832.1 kPa | 987.5 kg/m3
2851.8 kPa | 987.5 kg/m3
2867.8 kPa | 987.5 kg/m3
2885.5 kPa | 987.5 kg/m3
2902.1 kPa | 987.6 kg/m3
2918.6 kPa | 987.6 kg/m3
2935.2 kPa | 987.6 kg/m3
2954.3 kPa | 987.6 kg/m3
2972 kPa | 987.8 kg/m3
2987.9 kPa | 987.4 kg/m3
3008.9 kPa | 987.6 kg/m3
3025.6 kPa | 987.6 kg/m3
3043.9 kPa | 987.6 kg/m3
3062.1 kPa | 987.7 kg/m3
3082.8 kPa | 987.8 kg/m3
3101.3 kPa | 987.7 kg/m3
3118.5 kPa | 987.7 kg/m3
3140.8 kPa | 987.7 kg/m3
3158.5 kPa | 987.7 kg/m3
3176.4 kPa | 987.8 kg/m3
3198.6 kPa | 987.7 kg/m3
3218.2 kPa | 987.7 kg/m3
3237.6 kPa | 987.8 kg/m3
3256.6 kPa | 987.8 kg/m3
3279 kPa | 987.8 kg/m3
3300 kPa | 987.8 kg/m3
3320.3 kPa | 987.7 kg/m3
3339.7 kPa | 987.8 kg/m3
3362.4 kPa | 987.8 kg/m3
3382.2 kPa | 987.9 kg/m3
3402.9 kPa | 987.8 kg/m3
3422.4 kPa | 987.9 kg/m3
3448.4 kPa | 987.9 kg/m3
3468.1 kPa | 987.9 kg/m3
3488.6 kPa | 987.9 kg/m3
3515.4 kPa | 987.8 kg/m3
3535.7 kPa | 988 kg/m3
3561.2 kPa | 987.9 kg/m3
3584.9 kPa | 987.9 kg/m3
3606.2 kPa | 987.9 kg/m3
3628.7 kPa | 988 kg/m3
3652.3 kPa | 987.9 kg/m3
3675 kPa | 988 kg/m3
3703.2 kPa | 988 kg/m3
3725.9 kPa | 988 kg/m3
3750.4 kPa | 988.1 kg/m3
3777.7 kPa | 988.1 kg/m3
3800.4 kPa | 988.1 kg/m3
3825.2 kPa | 988 kg/m3
3853.3 kPa | 988 kg/m3
3879.1 kPa | 988 kg/m3
3903.5 kPa | 988 kg/m3
3929.1 kPa | 988.2 kg/m3
3959.3 kPa | 988.2 kg/m3
3983.7 kPa | 988.1 kg/m3
4010 kPa | 988.4 kg/m3
4036.2 kPa | 988.2 kg/m3
4066.7 kPa | 988.2 kg/m3
4093.2 kPa | 988.2 kg/m3
4121.2 kPa | 988.2 kg/m3
4152.6 kPa | 988.3 kg/m3
4181.1 kPa | 988.3 kg/m3
4209.5 kPa | 988.3 kg/m3
4236.7 kPa | 988.3 kg/m3
4257.5 kPa | 988.4 kg/m3
4379.6 kPa | 988.4 kg/m3
4380.1 kPa | 988.4 kg/m3
4380.5 kPa | 988.4 kg/m3
4380.8 kPa | 988.4 kg/m3
4381 kPa | 988.4 kg/m3
4381.5 kPa | 988.3 kg/m3
4381.9 kPa | 988.6 kg/m3
4382.2 kPa | 988.4 kg/m3
4382.4 kPa | 988.4 kg/m3
4382.6 kPa | 988.3 kg/m3 and 988.5 kg/m3
4382.7 kPa | 988.4 kg/m3
4382.9 kPa | 988.4 kg/m3 and 988.5 kg/m3
4383.1 kPa | 988.4 kg/m3
4383.2 kPa | 988.3 kg/m3 and 988.4 kg/m3
4383.4 kPa | 988.5 kg/m3 and 988.4 kg/m3
4383.6 kPa | 988.3 kg/m3 and 988.4 kg/m3 and 988.5 kg/m3
4383.8 kPa | 988.5 kg/m3 and 988.4 kg/m3
4383.9 kPa | 988.4 kg/m3 and 988.5 kg/m3 and 988.3 kg/m3
4384.1 kPa | 988.4 kg/m3 [middle of 5 runs]
4384.3 kPa | 988.4 kg/m3 and 988.5 kg/m3 and 988.3 kg/m3
4384.5 kPa | 988.4 kg/m3 and 988.5 kg/m3 and 988.3 kg/m3
4384.6 kPa | 988.5 kg/m3 and 988.4 kg/m3
4384.8 kPa | 988.4 kg/m3 and 988.3 kg/m3
4385 kPa | 988.4 kg/m3 and 988.3 kg/m3 and 988.5 kg/m3
4385.1 kPa | 988.4 kg/m3 and 988.3 kg/m3 and 988.5 kg/m3
4385.3 kPa | 988.4 kg/m3 and 988.5 kg/m3
4385.4 kPa | 988.4 kg/m3
4385.5 kPa | 988.4 kg/m3 and 988.3 kg/m3
